Source: US11802111B2, “Cyclobutyl amide monoacylglycerol lipase modulators” (Janssen Pharmaceutica NV, priority 2020, dated 2023)

molecular target: human MGL from HeLa cells (Homo sapiens (Human), UniProt Q99685); assay: MGL in vitro activity assay ([glycerol-1,3-3H]-oleoyl glycerol hydrolysis, activated carbon filtration); format: biochemical; details: 300 nM [Glycerol-1,3-3H]-oleoyl glycerol, one hour
Experimental: The assay used to measure the in vitro activity of MGL is adapted from the assay used for another serine hydrolase (FAAH) described in Wilson et al., 2003 (A high-throughput-compatible assay for determining the activity of fatty acid amide hydrolase. Wilson S J, Lovenberg T W, Barbier A J. Anal Biochem. 2003 Jul. 15; 318(2):270-5). The assay consists of combining endogenously expressed MGL from HeLa cells with test compounds, adding [glycerol-1,3-^3H]-oleyl glycerol, incubating for one hour, and then measuring the amount of cleaved [1,3-^3H]-glycerol that passes through an activated carbon filter. The amount of cleaved, tritiated glycerol passing through the carbon filter is proportional to the activity of the MGL enzyme in a particular well/test condition.
Standard conditions for this assay combine 300 nM [Glycerol-1,3-^3H]-oleoyl glycerol with human MGL from HeLa cells and test compounds for one hour, after which the reaction is filtered through activated carbon and tritium is measured in the flow through. The test compound concentration in screening mode is 10 μM, while the highest compound concentration in IC50 assays is determined empirically. MGL is the predominant hydrolase in HeLa cells/cell homogenates.

human MGL from HeLa cells, sequence (Q99685 whole entry): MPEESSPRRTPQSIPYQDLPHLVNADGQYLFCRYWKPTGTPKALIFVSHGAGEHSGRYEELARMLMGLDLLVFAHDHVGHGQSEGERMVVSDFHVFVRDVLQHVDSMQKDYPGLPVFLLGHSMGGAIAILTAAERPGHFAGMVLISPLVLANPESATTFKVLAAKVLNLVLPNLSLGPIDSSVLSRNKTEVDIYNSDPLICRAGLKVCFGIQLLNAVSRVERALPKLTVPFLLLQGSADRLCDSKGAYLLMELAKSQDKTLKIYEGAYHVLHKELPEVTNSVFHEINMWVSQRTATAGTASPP

**Q.** How did the IC50 turn out when `Cc1cc(C2CCC3(C2)CN(C(=O)[C@H]2C[C@@](C)(O)C2)C3)ccc1OC(F)F` (mixture of isomers) [Example 72, (rac)-(6-(4-(Difluoromethoxy)-3-methylphenyl)-2-azaspiro[3.4]octan-2-yl)((1s,3s)-3-hydroxy-3-methylcyclobutyl)methanone] was run?
**A.** 4.6 nM

**Q.** `Cc1cc(C2CC2)ccc1C1CCC2(C1)CN(C(=O)[C@H]1C[C@@](C)(O)C1)C2` (mixture of isomers) [Example 75, (rac)-(6-(4-Cyclopropyl-2-methylphenyl)-2-azaspiro[3.4]octan-2-yl)((1s,3s)-3-hydroxy-3-methylcyclobutyl)methanone] was tested. Which IC50 did it give?
**A.** 2.4 nM

**Q.** With `COc1ccc(C2CCC3(C2)CN(C(=O)[C@H]2C[C@@](C)(O)C2)C3)cc1C` (mixture of isomers) [Example 76, (rac)-((1s,3s)-3-Hydroxy-3-methylcyclobutyl)(6-(4-methoxy-3-methylphenyl)-2-azaspiro[3.4]octan-2-yl)methanone] as the molecule, how does the IC50 read?
**A.** 51 nM

**Q.** Which IC50 does the source give for `Cc1cc(C2CCC3(C2)CN(C(=O)[C@H]2C[C@@](C)(O)C2)C3)cc(C(F)(F)F)c1` (mixture of isomers) [Example 77, (rac)-((1s,3s)-3-Hydroxy-3-methylcyclobutyl)(6-(3-methyl-5-(trifluoromethyl)phenyl)-2-azaspiro[3.4]octan-2-yl)methanone] here?
**A.** 12 nM

**Q.** Which IC50 does the source give for `Cc1ccc(C(F)(F)F)cc1C1CCC2(C1)CN(C(=O)[C@H]1C[C@@](C)(O)C1)C2` (mixture of isomers) [Example 78, (rac)-((1s,3s)-3-Hydroxy-3-methylcyclobutyl)(6-(2-methyl-5-(trifluoromethyl)phenyl)-2-azaspiro[3.4]octan-2-yl)methanone] here?
**A.** 11 nM

**Q.** How did the IC50 turn out when `COc1cccc(C2CCC3(C2)CN(C(=O)[C@H]2C[C@@](C)(O)C2)C3)c1F` (mixture of isomers) [Example 79, (rac)-(6-(2-Fluoro-3-methoxyphenyl)-2-azaspiro[3.4]octan-2-yl)((1s,3s)-3-hydroxy-3-methylcyclobutyl)methanone] was run?
**A.** 242 nM

**Q.** With `COc1cc(C)cc(C2CCC3(C2)CN(C(=O)[C@H]2C[C@@](C)(O)C2)C3)c1` (mixture of isomers) [Example 80, (rac)-((1s,3s)-3-Hydroxy-3-methylcyclobutyl)(6-(3-methoxy-5-methylphenyl)-2-azaspiro[3.4]octan-2-yl)methanone] as the molecule, how does the IC50 read?
**A.** 104 nM

**Q.** `C[C@]1(O)C[C@@H](C(=O)N2CC3(CCC(c4cc(C5CC5)ccc4F)C3)C2)C1` (mixture of isomers) [Example 81, (rac)-(6-(5-Cyclopropyl-2-fluorophenyl)-2-azaspiro[3.4]octan-2-yl)((1s,3s)-3-hydroxy-3-methylcyclobutyl)methanone] was tested. Which IC50 did it give?
**A.** 20 nM

**Q.** `Cc1ccc(C2CCC3(C2)CN(C(=O)[C@H]2C[C@@](C)(O)C2)C3)cc1OC(F)F` (mixture of isomers) [Example 82, (rac)-(6-(3-(Difluoromethoxy)-4-methylphenyl)-2-azaspiro[3.4]octan-2-yl)((1s,3s)-3-hydroxy-3-methylcyclobutyl)methanone] was tested. Which IC50 did it give?
**A.** 31 nM

**Q.** For `Cc1cc(OC(F)F)ccc1C1CCC2(C1)CN(C(=O)[C@H]1C[C@@](C)(O)C1)C2` (mixture of isomers) [Example 83, (rac)-(6-(4-(Difluoromethoxy)-2-methylphenyl)-2-azaspiro[3.4]octan-2-yl)((1s,3s)-3-hydroxy-3-methylcyclobutyl)methanone], which IC50 is on record?
**A.** 25 nM

**Q.** Which IC50 does the source give for `Cc1cc(OC(F)F)cc(C2CCC3(C2)CN(C(=O)[C@H]2C[C@@](C)(O)C2)C3)c1` (mixture of isomers) [Example 84, (rac)-(6-(3-(Difluoromethoxy)-5-methylphenyl)-2-azaspiro[3.4]octan-2-yl)((1s,3s)-3-hydroxy-3-methylcyclobutyl)methanone] here?
**A.** 47 nM

**Q.** `Cc1ccc(OC(F)F)cc1C1CCC2(C1)CN(C(=O)[C@H]1C[C@@](C)(O)C1)C2` (mixture of isomers) [Example 85, (rac)-(6-(5-(Difluoromethoxy)-2-methylphenyl)-2-azaspiro[3.4]octan-2-yl)((1s,3s)-3-hydroxy-3-methylcyclobutyl)methanone] was tested. Which IC50 did it give?
**A.** 42 nM

**Q.** For `COc1cc(Cl)cc(C2CCC3(C2)CN(C(=O)[C@H]2C[C@@](C)(O)C2)C3)c1` (mixture of isomers) [Example 86, (rac)-(6-(3-Chloro-5-methoxyphenyl)-2-azaspiro[3.4]octan-2-yl)((1s,3s)-3-hydroxy-3-methylcyclobutyl)methanone], which IC50 is on record?
**A.** 42 nM

**Q.** `COc1cc(C2CCC3(C2)CN(C(=O)[C@H]2C[C@@](C)(O)C2)C3)ccc1Cl` (mixture of isomers) [Example 87, (rac)-(6-(4-Chloro-3-methoxyphenyl)-2-azaspiro[3.4]octan-2-yl)((1s,3s)-3-hydroxy-3-methylcyclobutyl)methanone] was tested. Which IC50 did it give?
**A.** 105 nM

**Q.** `CC(C)c1cccc(C2CCC3(C2)CN(C(=O)[C@H]2C[C@](O)(C(F)(F)F)C2)C3)c1` (mixture of isomers) [Example 88, (rac)-((1s,3s)-3-Hydroxy-3-(trifluoromethyl)cyclobutyl)(6-(3-isopropylphenyl)-2-azaspiro[3.4]octan-2-yl)methanone] was tested. Which IC50 did it give?
**A.** 59 nM

**Q.** `CC(F)(F)c1cccc(C2CCC3(C2)CN(C(=O)[C@H]2C[C@@](C)(O)C2)C3)c1` (mixture of isomers) [Example 90, (rac)-(6-(3-(1,1-Difluoroethyl)phenyl)-2-azaspiro[3.4]octan-2-yl)((1s,3s)-3-hydroxy-3-methylcyclobutyl)methanone] was tested. Which IC50 did it give?
**A.** 64 nM

**Q.** `CCc1cccc(C2CCC3(C2)CN(C(=O)[C@H]2C[C@@](C)(O)C2)C3)c1` (mixture of isomers) [Example 91, (rac)-(6-(3-Ethylphenyl)-2-azaspiro[3.4]octan-2-yl)((1s,3s)-3-hydroxy-3-methylcyclobutyl)methanone] was tested. Which IC50 did it give?
**A.** 58 nM

**Q.** Which IC50 does the source give for `Cc1ccc(C2CCC3(C2)CN(C(=O)[C@H]2C[C@@](C)(O)C2)C3)cc1C(F)F` (mixture of isomers) [Example 92, (rac)-(6-(3-(Difluoromethyl)-4-methylphenyl)-2-azaspiro[3.4]octan-2-yl)((1s,3s)-3-hydroxy-3-methylcyclobutyl)methanone] here?
**A.** 27 nM

**Q.** Which IC50 does the source give for `Cc1cc(OC(F)(F)F)cc(C2CCC3(C2)CN(C(=O)[C@H]2C[C@@](C)(O)C2)C3)c1` (mixture of isomers) [Example 93, (rac)-((1s,3s)-3-Hydroxy-3-methylcyclobutyl)(6-(3-methyl-5-(trifluoromethoxy)phenyl)-2-azaspiro[3.4]octan-2-yl)methanone] here?
**A.** 20 nM

**Q.** `Cc1cc(C(F)F)cc(C2CCC3(C2)CN(C(=O)[C@H]2C[C@@](C)(O)C2)C3)c1` (mixture of isomers) [Example 94, (rac)-(6-(3-(Difluoromethyl)-5-methylphenyl)-2-azaspiro[3.4]octan-2-yl)((1s,3s)-3-hydroxy-3-methylcyclobutyl)methanone] was tested. Which IC50 did it give?
**A.** 60 nM

**Q.** With `COc1c(C)cccc1C1CCC2(C1)CN(C(=O)[C@H]1C[C@@](C)(O)C1)C2` (mixture of isomers) [Example 95, (rac)-((1s,3s)-3-Hydroxy-3-methylcyclobutyl)(6-(2-methoxy-3-methylphenyl)-2-azaspiro[3.4]octan-2-yl)methanone] as the molecule, how does the IC50 read?
**A.** 290 nM

**Q.** For `CCc1ccc(C2CCC3(C2)CN(C(=O)[C@H]2C[C@@](C)(O)C2)C3)cc1` (mixture of isomers) [Example 96, (rac)-(6-(4-Ethylphenyl)-2-azaspiro[3.4]octan-2-yl)((1s,3s)-3-hydroxy-3-methylcyclobutyl)methanone], which IC50 is on record?
**A.** 18 nM

**Q.** With `C[C@]1(O)C[C@@H](C(=O)N2CC3(CCC(c4ccn5nccc5c4)C3)C2)C1` (mixture of isomers) [Example 97, (rac)-((1s,3s)-3-Hydroxy-3-methylcyclobutyl)(6-(pyrazolo[1,5-a]pyridin-5-yl)-2-azaspiro[3.4]octan-2-yl)methanone] as the molecule, how does the IC50 read?
**A.** 654 nM

**Q.** With `Cc1cccc(C)c1C1CCC2(C1)CN(C(=O)[C@H]1C[C@@](C)(O)C1)C2` (mixture of isomers) [Example 98, (rac)-(6-(2,6-Dimethylphenyl)-2-azaspiro[3.4]octan-2-yl)((1s,3s)-3-hydroxy-3-methylcyclobutyl)methanone] as the molecule, how does the IC50 read?
**A.** 292 nM

**Q.** `Cn1cc(C2CCC3(C2)CN(C(=O)[C@H]2C[C@@](C)(O)C2)C3)cn1` (mixture of isomers) [Example 99, (rac)-((1s,3s)-3-Hydroxy-3-methylcyclobutyl)(6-(1-methyl-1H-pyrazol-4-yl)-2-azaspiro[3.4]octan-2-yl)methanone] was tested. Which IC50 did it give?
**A.** 5930 nM

**Q.** With `Cn1cc(C2CCC3(C2)CN(C(=O)[C@H]2C[C@@](C)(O)C2)C3)c(C(F)(F)F)n1` (mixture of isomers) [Example 100, (rac)-((1s,3s)-3-Hydroxy-3-methylcyclobutyl)(6-(1-methyl-3-(trifluoromethyl)-1H-pyrazol-4-yl)-2-azaspiro[3.4]octan-2-yl)methanone] as the molecule, how does the IC50 read?
**A.** 8850 nM

**Q.** For `Cn1nc(C(F)(F)F)cc1C1CCC2(C1)CN(C(=O)[C@H]1C[C@@](C)(O)C1)C2` (mixture of isomers) [Example 101, (rac)-((1s,3s)-3-Hydroxy-3-methylcyclobutyl)(6-(1-methyl-3-(trifluoromethyl)-1H-pyrazol-5-yl)-2-azaspiro[3.4]octan-2-yl)methanone], which IC50 is on record?
**A.** 753 nM

**Q.** For `Cn1ncc2cc(C3CCC4(C3)CN(C(=O)[C@H]3C[C@@](C)(O)C3)C4)ccc21` (mixture of isomers) [Example 102, (rac)-((1s,3s)-3-Hydroxy-3-methylcyclobutyl)(6-(1-methyl-1H-indazol-5-yl)-2-azaspiro[3.4]octan-2-yl)methanone], which IC50 is on record?
**A.** 301 nM

**Q.** Which IC50 does the source give for `Cc1ccc(C2CCC3(C2)CN(C(=O)[C@H]2C[C@@](C)(O)C2)C3)cc1OC(F)(F)F` (mixture of isomers) [Example 107, (rac)-((1s,3s)-3-Hydroxy-3-methylcyclobutyl)(6-(4-methyl-3-(trifluoromethoxy)phenyl)-2-azaspiro[3.4]octan-2-yl)methanone] here?
**A.** 7.4 nM
